Data: PubChem BioAssay AID1259407 (Chemical Carcinogenesis Research Information System (CCRIS), 2018)
Calls of active or inactive are those of the source. No rule for the calls is given here.

Test system: CCRIS mutagenicity, Ames/micronucleus/aberration tests
Experiment: CCRIS mutagenicity studies
[1] = Test System: AMES SALMONELLA TYPHIMURIUM, Strain/Indicator: TA98, Metabolic Activation: NONE, Method: STANDARD PLATE
[2] = Test System: AMES SALMONELLA TYPHIMURIUM, Strain/Indicator: TA98, Metabolic Activation: RAT, LIVER, S-9, AROCLOR 1254, Method: STANDARD PLATE
[3] = Test System: AMES SALMONELLA TYPHIMURIUM, Strain/Indicator: TA100, Metabolic Activation: NONE, Method: STANDARD PLATE
[4] = Test System: AMES SALMONELLA TYPHIMURIUM, Strain/Indicator: TA100, Metabolic Activation: RAT, LIVER, S-9, AROCLOR 1254, Method: STANDARD PLATE
[5] = Test System: MOUSE LYMPHOMA, Strain/Indicator: L5178Y (TK+/TK-), Metabolic Activation: NONE, Method: SUSPENSION/PLATE
[6] = Test System: AMES SALMONELLA TYPHIMURIUM, Strain/Indicator: TA98, Metabolic Activation: NONE, Method: PREINCUBATION
[7] = Test System: AMES SALMONELLA TYPHIMURIUM, Strain/Indicator: TA100, Metabolic Activation: NONE, Method: PREINCUBATION

Measured: mutagenic call

ClC1=C(Cl)[C@]2(Cl)[C@@H]3[C@@H]4C[C@@H]([C@H]5O[C@@H]45)[C@@H]3[C@@]1(Cl)C2(Cl)Cl
inactive: End Point: IN VITRO CHROMOSOMAL ABERRATIONS, Test System: CHINESE HAMSTER OVARY CELLS, Metabolic Activation: NONE inactive; negative | End Point: IN VITRO CHROMOSOMAL ABERRATIONS, Test System: CHINESE HAMSTER OVARY CELLS, Metabolic Activation: RAT, LIVER, S-9, AROCLOR 1254 inactive; negative; precipitation occurred at all doses | Test System: AMES SALMONELLA TYPHIMURIUM, Strain/Indicator: TA97, Metabolic Activation: NONE, Method: STANDARD PLATE inactive; negative | Test System: AMES SALMONELLA TYPHIMURIUM, Strain/Indicator: TA97, Metabolic Activation: RAT, LIVER, S-9, AROCLOR 1254, Method: STANDARD PLATE inactive; negative | [1] inactive; negative | [2] inactive; negative | [3] inactive; negative | [4] inactive; negative | Test System: AMES SALMONELLA TYPHIMURIUM, Strain/Indicator: TA102, Metabolic Activation: NONE, Method: STANDARD PLATE inactive; negative | Test System: AMES SALMONELLA TYPHIMURIUM, Strain/Indicator: TA102, Metabolic Activation: RAT, LIVER, S-9, AROCLOR 1254, Method: STANDARD PLATE inactive; negative
active: Test System: CHINESE HAMSTER V-79, Strain/Indicator: V-79/OUABAIN, Metabolic Activation: NONE, Method: STANDARD PLATE active; positive | [5] active; positive

COC(=O)CCC(=O)OC
inactive: Test System: AMES SALMONELLA TYPHIMURIUM, Strain/Indicator: TA97, Metabolic Activation: HAMSTER, LIVER, S-9, AROCLOR 1254 (10 OR 30%), Method: PREINCUBATION inactive; negative | Test System: AMES SALMONELLA TYPHIMURIUM, Strain/Indicator: TA97, Metabolic Activation: NONE, Method: PREINCUBATION inactive; negative | Test System: AMES SALMONELLA TYPHIMURIUM, Strain/Indicator: TA97, Metabolic Activation: RAT, LIVER, S-9, AROCLOR 1254 (10 OR 30%), Method: PREINCUBATION inactive; negative | Test System: AMES SALMONELLA TYPHIMURIUM, Strain/Indicator: TA98, Metabolic Activation: HAMSTER, LIVER, S-9, AROCLOR 1254 (10 OR 30%), Method: PREINCUBATION inactive; negative | [6] inactive; negative | [1] inactive; negative | Test System: AMES SALMONELLA TYPHIMURIUM, Strain/Indicator: TA98, Metabolic Activation: RAT, LIVER, S-9, AROCLOR 1254 (10 OR 30%), Method: PREINCUBATION inactive; negative | [2] inactive; negative | Test System: AMES SALMONELLA TYPHIMURIUM, Strain/Indicator: TA100, Metabolic Activation: HAMSTER, LIVER, S-9, AROCLOR 1254 (10 OR 30%), Method: PREINCUBATION inactive; negative | [7] inactive; negative | [3] inactive; negative | Test System: AMES SALMONELLA TYPHIMURIUM, Strain/Indicator: TA100, Metabolic Activation: RAT, LIVER, S-9, AROCLOR 1254 (10 OR 30%), Method: PREINCUBATION inactive; negative | [4] inactive; negative | Test System: AMES SALMONELLA TYPHIMURIUM, Strain/Indicator: TA1535, Metabolic Activation: HAMSTER, LIVER, S-9, AROCLOR 1254 (10 OR 30%), Method: PREINCUBATION inactive; negative | Test System: AMES SALMONELLA TYPHIMURIUM, Strain/Indicator: TA1535, Metabolic Activation: NONE, Method: PREINCUBATION inactive; negative | Test System: AMES SALMONELLA TYPHIMURIUM, Strain/Indicator: TA1535, Metabolic Activation: NONE, Method: STANDARD PLATE inactive; negative | Test System: AMES SALMONELLA TYPHIMURIUM, Strain/Indicator: TA1535, Metabolic Activation: RAT, LIVER, S-9, AROCLOR 1254 (10 OR 30%), Method: PREINCUBATION inactive; negative | Test System: AMES SALMONELLA TYPHIMURIUM, Strain/Indicator: TA1535, Metabolic Activation: RAT, LIVER, S-9, AROCLOR 1254, Method: STANDARD PLATE inactive; negative | Test System: AMES SALMONELLA TYPHIMURIUM, Strain/Indicator: TA1537, Metabolic Activation: NONE, Method: STANDARD PLATE inactive; negative | Test System: AMES SALMONELLA TYPHIMURIUM, Strain/Indicator: TA1537, Metabolic Activation: RAT, LIVER, S-9, AROCLOR 1254, Method: STANDARD PLATE inactive; negative

O=[N+]([O-])c1ccc(Cl)cc1
inactive: End Point: IN VITRO CHROMOSOMAL ABERRATIONS, Test System: HUMAN PERIPHERAL LYMPHOCYTES, Metabolic Activation: NONE inactive; negative | [6] inactive; negative | Test System: AMES SALMONELLA TYPHIMURIUM, Strain/Indicator: TA98, Metabolic Activation: RAT, LIVER, S-9, KANECHLOR 500, Method: PREINCUBATION inactive; negative | [7] inactive; negative | Test System: Ames Salmonella typhimurium, Strain/Indicator: TA98, Metabolic Activation: None, Method: Preincubation inactive; negative | Test System: Ames Salmonella typhimurium, Strain/Indicator: TA98, Metabolic Activation: Rat, Liver, S9, Sodium phenobarbital and 5,6-benzoflavone (10%), Method: Preincubation inactive; negative | Test System: Ames Salmonella typhimurium, Strain/Indicator: TA98, Metabolic Activation: Rat, Liver, S9, Sodium phenobarbital and 5,6-benzoflavone, Method: Preincubation inactive; negative | Test System: Ames Salmonella typhimurium, Strain/Indicator: TA100, Metabolic Activation: None, Method: Preincubation inactive; negative | Test System: Ames Salmonella typhimurium, Strain/Indicator: TA1535, Metabolic Activation: None, Method: Preincubation inactive; negative | Test System: Ames Salmonella typhimurium, Strain/Indicator: TA1535, Metabolic Activation: Rat, Liver, S9, Sodium phenobarbital and 5,6-benzoflavone (10%), Method: Preincubation inactive; negative | Test System: Ames Salmonella typhimurium, Strain/Indicator: TA1537, Metabolic Activation: None, Method: Preincubation inactive; negative | Test System: Ames Salmonella typhimurium, Strain/Indicator: TA1537, Metabolic Activation: Rat, Liver, S9, Sodium phenobarbital and 5,6-benzoflavone (10%), Method: Preincubation inactive; negative | Test System: Ames Salmonella typhimurium, Strain/Indicator: TA1537, Metabolic Activation: Rat, Liver, S9, Sodium phenobarbital and 5,6-benzoflavone, Method: Preincubation inactive; negative | Test System: E. coli, Strain/Indicator: WP2uvrA/PKM101, Metabolic Activation: None, Method: Preincubation inactive; negative | Test System: E. coli, Strain/Indicator: WP2uvrA/PKM101, Metabolic Activation: Rat, Liver, S9, Sodium phenobarbital and 5,6-benzoflavone (10%), Method: Preincubation inactive; negative | Test System: E. coli, Strain/Indicator: WP2uvrA/pKM101, Metabolic Activation: None, Method: Preincubation inactive; negative | Test System: E. coli, Strain/Indicator: WP2uvrA/pKM101, Metabolic Activation: Rat, Liver, S9, Sodium phenobarbital and 5,6-benzoflavone, Method: Preincubation inactive; negative
active: End Point: IN VITRO CHROMOSOMAL ABERRATIONS, Test System: CHL CELLS, Metabolic Activation: NONE active; positive (ploidy changes); precipitation occurred at 0.4, 0.5, and 0.6 mg/ml | End Point: IN VITRO CHROMOSOMAL ABERRATIONS, Test System: CHL CELLS, Metabolic Activation: RAT, LIVER, S-9, SODIUM PHENOBARBITAL AND 5,6-BENZOFLAVONE active; positive (structural changes); authors report equivocal results for ploidy chang

C=C(C)C(=O)OCC(OC1=CCCC1)OC1=CCCC1
inactive: [5] inactive; negative

C1=Cc2cc3cccc4c5ccccc5c5ccc1c2c5c34
inactive: Test System: AMES SALMONELLA TYPHIMURIUM, Strain/Indicator: TA1535, Metabolic Activation: RAT, LIVER, S-9, AROCLOR 1254 (0.14 OR 0.41 MG), Method: STANDARD PLATE inactive; negative
active: Test System: AMES SALMONELLA TYPHIMURIUM, Strain/Indicator: TA98, Metabolic Activation: RAT, LIVER, S-9, AROCLOR 1254 (0.14 OR 0.41 MG), Method: STANDARD PLATE active; positive | Test System: AMES SALMONELLA TYPHIMURIUM, Strain/Indicator: TA100, Metabolic Activation: RAT, LIVER, S-9, AROCLOR 1254 (0.14 OR 0.41 MG), Method: STANDARD PLATE active; positive | Test System: AMES SALMONELLA TYPHIMURIUM, Strain/Indicator: TA104, Metabolic Activation: RAT, LIVER, S-9, AROCLOR 1254 (0.14 OR 0.41 MG), Method: STANDARD PLATE active; positive | Test System: AMES SALMONELLA TYPHIMURIUM, Strain/Indicator: TA1537, Metabolic Activation: RAT, LIVER, S-9, AROCLOR 1254 (0.14 OR 0.41 MG), Method: STANDARD PLATE active; positive | Test System: AMES SALMONELLA TYPHIMURIUM, Strain/Indicator: TA1538, Metabolic Activation: RAT, LIVER, S-9, AROCLOR 1254 (0.14 OR 0.41 MG), Method: STANDARD PLATE active; positive
